From US20130203097A1 (priority 2010, published 2013)
*: point of attachment. pNA = O=[N+]([O-])c1ccc(N*)cc1; MeOSuc = COC(=O)CCC(=O)*

How the values were obtained:
[1] = system: CC(=O)N[C@@H](CO)C(=O)N[C@@H](CCCCN)C(=O)NCC(=O)N[C@@H](Cc1ccc2ccc3cccc4ccc1c2c34)C(=O)N[C@@H](Cc1ccc(O)c([N+](=O)[O-])c1)C(=O)NCC(=O)NCC(=O)N[C@@H](CCCCN)C(N)=O; assay: purified protein, by the assay type; settings: pH 7.0; 37.0 °C
Pseudomonas aeruginosa = settings: cited from earlier work
[2] = system: other species of Legionella; settings: cited from earlier work
[3] = system: strains of Legionella pneumophila; settings: out of 283 strains of Legionella pneumophila tested; cited from earlier work

Substance	Km [1] [µM]	kcat [1] [s⁻¹]	Pseudomonas aeruginosa that responded positively (Pseudomonas aeruginosa)	species that responded positively [2]	strains that degraded the substrate [3]
Msp (Legionella pneumophila)	6.8 ± 0.6	23.9 ± 0.7	–	–	–
MeOSuc-Arg-Pro-Tyr-pNA [Compound S-2586]	–	–	22	2	282
